Laboratory results as given in article PMC3382171 (PLoS ONE, 2012).

Tests used:
Experiment in all cases: biochemical
[1] = target: MAPKAPK3 (Homo sapiens, UniProt Q16644); parameters: gene MAPKAPK3; settings: read-out: Dundee KSS % inhibition at 1uM
Protocol: The METi and RAFi were screened against kinase panels (SelectScreen, Invitrogen; University of Dundee, Division of Signal Transduction Therapy, UK; Upstate Biotechnology/Millipore, Billerica, MA). In these selectivity assays the concentration of ATP was set to the Km value of ATP for each kinase tested to allow for a relative potency comparison between the various kinases. The compounds were tested at 1 µM final concentration. […] (A) Kinase selectivity screen (KSS) performed at Upstate Biotechnology. […] (B) KSS performed at University of Dundee (Division of Signal Transduction Therapy). […] (PDF) Click here for additional data file.

[2] = target: DYRK1A (Homo sapiens, UniProt Q13627); parameters: Invitrogen SelectScreen kinase panel, percent inhibition at 1 uM, ATP at Km; settings: read-out: Invitrogen KSS %Inh at 1 µM
How it was run: (§1)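 Commercial kinase panel screens run with ATP at the Km for each kinase. Compounds tested at 1 µM final concentration; values are % inhibition of phosphorylation relative to control.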

[3] = target: NEK2 (Homo sapiens, UniProt P51955); parameters: Invitrogen SelectScreen kinase panel, percent inhibition at 1 uM, ATP at Km; settings: read-out: Invitrogen KSS %Inh at 1 µM
NEK2, sequence (P51955 whole entry): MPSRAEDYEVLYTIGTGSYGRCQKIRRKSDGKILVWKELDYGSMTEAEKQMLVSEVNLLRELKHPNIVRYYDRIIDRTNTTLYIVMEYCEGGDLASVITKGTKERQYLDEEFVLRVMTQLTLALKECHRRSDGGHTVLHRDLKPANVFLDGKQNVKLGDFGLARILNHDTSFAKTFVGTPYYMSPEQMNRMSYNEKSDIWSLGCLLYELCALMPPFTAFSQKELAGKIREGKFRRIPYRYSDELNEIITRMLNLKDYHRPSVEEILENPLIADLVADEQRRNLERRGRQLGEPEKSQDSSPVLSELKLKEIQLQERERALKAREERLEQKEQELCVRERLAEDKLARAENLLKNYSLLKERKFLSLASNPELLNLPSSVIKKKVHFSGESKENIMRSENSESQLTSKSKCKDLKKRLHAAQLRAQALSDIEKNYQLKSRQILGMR
How it was run: as §1

MAPKAPK3, sequence (Q16644 whole entry): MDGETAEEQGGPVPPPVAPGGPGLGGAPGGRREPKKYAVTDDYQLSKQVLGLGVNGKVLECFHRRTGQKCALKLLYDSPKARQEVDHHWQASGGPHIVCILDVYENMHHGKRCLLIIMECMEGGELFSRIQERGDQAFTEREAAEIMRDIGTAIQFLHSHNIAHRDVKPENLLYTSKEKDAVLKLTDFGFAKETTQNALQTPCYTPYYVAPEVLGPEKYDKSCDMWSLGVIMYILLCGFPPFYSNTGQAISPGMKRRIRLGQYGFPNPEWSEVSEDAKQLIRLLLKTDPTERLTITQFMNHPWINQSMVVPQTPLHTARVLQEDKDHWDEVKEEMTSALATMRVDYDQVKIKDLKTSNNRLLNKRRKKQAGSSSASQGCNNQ

inhibition at 1 µM [1]	inhibition at 1 µM [2]	inhibition at 1 µM [3]	Compound
18.6%	–	–	OCCn1cc(-c2cnc3nnn(Cc4ccc5ncccc5c4)c3n2)cn1 [METi, PF-04217903]
–	-12%	40%	N#CCCNc1nccc(-c2cn(CC(F)F)nc2-c2cnc3[nH]ccc3c2)n1 [RAFi, PF-04880594]
